Test results as given in patent US4997835A, “Substituted 2-acylpyridine-α-(N)-hetarlyhydrazones and medicaments containing the same” (priority 1987, dated 1991).
≈ marks a conversion by molar mass, not a printed value. Where two headings read alike, the source gives them in different places.

How the values were obtained:
[1] = tested on: Indochina W-2 (parasitic malaria strain); assay: Growth of malaria strain Indochina W-2; assay type: cell-based; settings: for IC50: read-out: I50; for IC90: read-out: I90
Source text: (§1) Determination of the semimaximum inhibiting concentration (I50) of typical representatives of the inventive compounds for the growth of parasitic malaria strains:
(§2) The determination took place according to the standard process (cf. WHO determination process).
(§3) The process according to Example 35 was repeated with the difference that the semimaximum inhibiting concentration of combinations of the inventive compound PH 22 with (2), (3) inhibitors of dihydrofolic acid reductase, (4) inhibitors of folate synthase and dihydrofolic acid reductase and (5), (6) inhibitors of DNA-synthesis were determined.

[2] = tested on: Sierra Leone D-6 (parasitic malaria strain); assay: Growth of malaria strain Sierra Leone D-6; assay type: cell-based; settings: for IC50: read-out: I50; for IC90: read-out: I90
Source text: as §1, §2, §3

[3] = tested on: human mammary tumour cell line MDA-MB231; assay: Inhibition of cellnumber increase; assay type: cell-based; settings: MDA-MB-231, read-out: 50% Inhibition of cellnumber increase, I50
Method: (§4) The semimaximum inhibition of cellnumber increase and thymidine incorporation into DNA was determined on the […], human mammary tumour cell line MDA-MB231 (cf. H. D. Soule et al, J. Nat. Cancer Inst., 51, p.1409, 1973) according to the method described by H. Seidenberger, G. Kranzfelder, S. Wappes, H. Schonenberger, W. Beck and M. Girth, Arch. Pharm. 314, 955, 1981 and M. Lippman, M. E. Monaco and G. Bolan, Cancer Res. 37, 1901, 1977.

[4] = tested on: human mammary tumour cell line MDA-MB231; assay: Inhibition of thymidine incorporation into DNA; assay type: cell-based; settings: MDA-MB-231, read-out: 50% Inhibition of thymidine incorporation
Method: as §4

[5] = tested on: Mycobacterium smegmatis ATCC 607; assay: Minimum inhibiting concentration, M. smegmatis ATCC 607; assay type: cell-based; settings: Mycolicibacterium smegmatis, ATCC607; M. smegm. ATCC 607; read-out: Minimum inhibiting concentration
[6] = tested on: Mycobacterium marinum SN 1254; assay: Minimum inhibiting concentration, M. marinum SN1254; assay type: cell-based; settings: M. marin. SN1254, read-out: Minimum inhibiting concentration
[7] = tested on: Mycobacterium avium Patient Strain (Birk); assay: Minimum inhibiting concentration, M. avium Patient Strain (Birk); assay type: cell-based; settings: Mycobacterium avium; M. avium Patient str.; read-out: Minimum inhibiting concentration
[8] = tested on: Mycobacterium lufu; assay: Minimum inhibiting concentration, M. lufu L 209; assay type: cell-based; settings: Mycobacterium lufu
[9] = tested on: Mycobacterium tuberculosis H 37 RV; assay: Minimum inhibiting concentration, M. tuberculosis H37RV; assay type: cell-based; settings: Mycobacterium tuberculosis; M. tub. H37RV
Method: The minimum inhibiting concentration of the commercially available and inventive substances given in Table 2 was determined according to the known standard process ("Methods for sensitivity testing of bacterial infectious germs", DIN 58940, part 5).
The determination was carried out on the following bacterial cultures:
2. Mycobacterium tuberculosis H 37 RV, FIB 2-85 JS
For culturing the bacterial cultures use was made of nutrient substrates according to Gottsacker and Lowenstein Jensen and culture media according to Lockemann or Dubos-Davis (cf. "Detection processes for mycobacteria from test material, III, culture medium formulations for culturing tuberculosis bacteria", 1978, Publisher: Deutsches Zentralkomitee zur Bekampfung der Tuberculose, Poppenhusenstrasse 14c, 2000 Hamburg 60).
In each case 5×10^-3 to 5×10^-5 mg, based on the wet weight, of the mycobacterial strains were incubated in 2 ml of culture fluid (Lockemann +0.5 wt/vol. % bovine serum albumen fraction 5) at 31° C. with a graded concentration of the particular inhibitor (dilution series). The culture tubes were read off after 8 to 15 days, as a function of the bacterial strain.
The MIC is the inhibitor concentration in μMol/l at which no propagation of the sewn cells is observed.

[10] = mouse, in vivo
Method: (§5) The acute toxicity after a single administration of PH 22, pyridine-2-aldehyde-thiosemicarbazone (Py-2-TSC), as well as Conteben (thiacetazone, 4-acetylaminobenzaldehyde-thiosemicarbazone) was determined according to H. J. Hapke, Toxikologie fur Veterinarmediziner, F. Enke Verlag, Stuttgart 1975. The test animals used were Wistar rats and NMRI white mice.

[11] = tested on: M. leprae; assay: In vitro propagation of M. leprae, thymidine incorporation; assay type: cell-based; settings: Mycobacterium leprae, read-out: % Reduction Thymidine incorporation; for inhibition of growth at 50000 µg/mL: 50 mg/ml; for inhibition of growth at 100000 µg/mL: 100 mg/ml
Method: The inhibiting action was determined as a reaction of the thymidine absorption and the ATP content in M. Leprae suspensions, in the manner described by A. M. Dhople, Med. Sci. Res., 15, p.

[12] = tested on: M. leprae; assay: Propagation of M. leprae in mouse paws; assay type: in vivo
Method: The therapeutic action was determined as a reduction of the number of acid-resistant bacteria in the mouse paw according to C. C. Shepard, J. Experim. Met., 112, p. 445, 1960.
It is possible to detect the synergistic effect of the combinations, even under in vivo conditions.

[13] = tested on: Mycobacterium avium SN 304; assay: Minimum inhibiting concentration, M. avium SN 304; assay type: cell-based; settings: SN304, M. avium SN 304, read-out: Minimum inhibiting concentration
[14] = in vivo; settings: sc, Rat, subc., read-out: LD50
Method: as §5

[15] = Mouse i.p.; Cancer Res. 25, 1454 (1965); cited from earlier work
[16] = two months in feed, DDS 0.0001%, Rifampicin 0.001%, K-130 0.01%, Brodimoprim 0.01%, PH 22-26 0.05%

`NC(=NNc1ccccn1)c1ccccn1` [PH 22-12, pyridine-2-carboxylic acid 2'-pyridyl-amidrazone] gave an IC50 [1] of 6300 nM, an IC90 [1] of 41000 nM and an IC50 [2] of 1500 nM. It also gave an IC90 [2] of 4300 nM, an IC50 [3] of 460 nM and an IC50 [4] of 330 nM.
In the case of `c1ccc(C(=NNc2ccc3ccccc3n2)c2ccccn2)cc1` [PH 22-15, 2-benzoylpyridine-2'-quinolylhydrazone], the MIC [5] is reported as 3.1 µM (≈ 1.01 µg/mL), the IC50 [3] is reported as 1530 nM and the MIC [6] is reported as 4.6 µM (≈ 1.49 µg/mL). The MIC [7] was 18.5 µM (≈ 6 µg/mL), the MIC [8] was 1.2 µM (≈ 0.389 µg/mL) and the MIC [9] was 0.97 µM (≈ 0.315 µg/mL). The IC50 [4] was 570 nM.
With `CCC(=NNc1nncc2ccccc12)c1ccccn1` [PH 22-25, ethyl-2-pyridylketone-1'-phthalazinylhydrazine] the IC50 [1] was 400 nM, the IC90 [1] was 700 nM and the IC50 [2] was 300 nM. The IC90 [2] was 450 nM, the MIC [5] was 10.8 µM (≈ 3 µg/mL) and the IC50 [3] was 194 nM. It also gave an MIC [6] of 101 µM (≈ 28 µg/mL), an MIC [8] of 2.7 µM (≈ 0.749 µg/mL) and an MIC [9] of 36 µM (≈ 9.98 µg/mL). For the same compound, the IC50 [4] was 104 nM.
For `Clc1cc(NN=Cc2ccccn2)ncn1` [PH 22-26, pyridine-2-aldehyde-6'-chloro-4'-pyrimidylhydrazone], the IC50 [1] was 3500 nM, the IC90 [1] was 6200 nM and the toxic effects [10] was “No toxic effects were observed”. For the same compound, the IC50 [2] was 2000 nM, the IC90 [2] was 3000 nM and the inhibition of growth at 50000 µg/mL [11] was 30%. It also gave an inhibition of growth at 100000 µg/mL [11] of 48%, an MIC [5] of 25.7 µM (≈ 6.01 µg/mL) and an MIC [6] of 12.9 µM (≈ 3.01 µg/mL). The “% Inhibition of propagation of M. leprae in mouse paws” value (shortened to “% Inhibition”) ([12]; 0.1% in feed, 4 months) was 40%, the “M. leprae/paw, treated mice” value ([12]; 0.1% in feed, 4 months (control 0.468)) was 0.283 × 10^6 and the “% Inhibition” value ([12]; 0.1% in feed, 6.5 months) was 69%. For the same compound, the “% Inhibition” value ([12]; 0.1% in feed, 8.5 months) was 77%, the “M. leprae/paw, treated mice” value ([12]; 0.1% in feed, 8.5 months (control 2.978)) was 0.684 × 10^6 and the “% Inhibition” value ([12]; 0.1% in feed, 12 months) was 74%. For the same compound, the “M. leprae/paw, treated mice” value ([12]; 0.1% in feed, 12 months (control 3.682)) was 0.945 × 10^6, the “% Inhibition” value [12, 16] was 0% and the MIC [8] was 1.3 µM (≈ 0.304 µg/mL). For the same compound, the MIC [9] was 6.2 µM (≈ 1.45 µg/mL).
`C(=NNc1ccc2ccccc2n1)c1ccccn1` [PQ 22, pyridine-2-aldehyde-2'-quinolylhydrazone] showed an IC50 [1] of 1100 nM, an IC90 [1] of 1700 nM and an IC50 [2] of 1500 nM. For the same compound, the IC90 [2] was 2000 nM, the MIC [13] was 24 µM (≈ 5.96 µg/mL) and the MIC [5] was 21 µM (≈ 5.21 µg/mL). It also gave an IC50 [3] of 321 nM, an MIC [6] of 12 µM (≈ 2.98 µg/mL) and an MIC [8] of 10 µM (≈ 2.48 µg/mL). The MIC [9] was 28 µM (≈ 6.95 µg/mL) and the IC50 [4] was 157 nM.
For `NC(=S)NN=Cc1ccccn1` [Py-2-TSC, pyridine-2-aldehyde-thiosemicarbazone, reference compound], the LD50 [14] is given as 30 mg/kg, the MIC [8] is given as 40 µM (≈ 7.21 µg/mL) and the LD50 [15] is given as 40 mg/kg body weight.
In the case of `CO[C@H]1/C=C/O[C@@]2(C)Oc3c(C)c(O)c4c(O)c(c(/C=N/N5CCN(C)CC5)c(O)c4c3C2=O)NC(=O)/C(C)=C\C=C\[C@H](C)[C@H](O)[C@@H](C)[C@@H](O)[C@@H](C)[C@H](OC(C)=O)[C@@H]1C` [Rifampicin], the MIC [13] is reported as 39 µM (≈ 32.1 µg/mL), the inhibition of growth at 50000 µg/mL [11] is reported as 2% and the inhibition of growth at 100000 µg/mL [11] is reported as 0%. The “% Inhibition” value [12, 16] was 19% and the MIC [7] was 5 µM (≈ 4.11 µg/mL).
For `[H]/N=C(/N)N[C@H]1[C@H](O)[C@@H](O)[C@H](O[C@@H]2O[C@@H](C)[C@](O)(C=O)[C@H]2O[C@@H]2O[C@@H](CO)[C@H](O)[C@@H](O)[C@@H]2NC)[C@@H](N/C(N)=N\[H])[C@@H]1O` [Streptomycin], the MIC [13] was 55 µM (≈ 32 µg/mL).
